Source: USRE39061E1, “Pharmaceutical formulations comprising labdanes for the treatment of tumors or leukemias” (Medexis S.A., priority 1999, dated 2006)

How the values were obtained:
CCRF-CEM = test: Cytotoxic activity, MTT method, 48 h; format: cell-based; conditions: for GI50 / TGI: CCRF-CEM, 48 h, MTT
Experimental: (§1) Human cancer cell lines were used for in vitro drug testing. The cells were maintained as exponentially proliferating suspension cultures in RPMI-1640 medium (supplemented with 10% heat inactivated foetal calf serum, 2mM L-Glutamine and 50 μg/ml gentamycin and incubated at 37° C., in a humidified atmosphere with 5% CO2. Peripheral blood mononuclear cells (PBML) were also isolated from normal donors using the Ficoll-Hypaque method and cultured as the cancer cell lines.
(§2) To determine the cytotoxicity, log-phase cells from each cell line, resting and activated PBML (1×10^6 cells/ml), were incubated with free compound or liposomal formulation for 48 h, in 96-well flat-bottomed micro plates.
(§3) The initial inoculation densities for each cell line are presented in table (1) and were determined taking into account cell mass and growth rate (Monks A., Scudiero, D., Skehan P., Shomaker R., Pauli K., Vistica D., Hose C et al. Feasibility of a High-Flux Anticancer Drug screen using a diverse panel of cultured human tumor cell lines. JNCI 1991; 83(11): 757-766 Paul K D, Shomaker R H, Hodes L, Monks A, Scudiero D A, Rubinstein L., Plowman J and Boyd M R. Tumor Cell Lines: Development of Mean Graph and Compare Algorithm. JNCI 1989; 81(14): 1088-1092). Viability of the cells was assessed by trypan blue dye exclusion, at the beginning of the experiment and was always greater than 98%.
(§4) Cells were added at the appropriate inoculation densities in 96-well micro titer plates and preincubated for 24 hours in a moist atmosphere of 5% CO2 in air at 37 °C, to allow stabilization prior to addition of the test compounds. To determine their activity, the free compound or liposomal formulation were added at the same time to each cell line. Cultures, where an equivalent amount of DMSO was added, used as controls. After the addition of the test agents the cells were cultured in micro plates for an additional 48 h under the same conditions. Each test agent was inoculated at five concentrations (10−4 to 10−8 M). The activity for each compound on each cell line was determined by the MTT method with modifications. Briefly 4 h before the end of the 48 h incubation period, MTT (3-(4,5-dimethylthiazol-2-yl)-2-5 diphenyl tetrazolium bromide, Sigma-Aldrich) dissolved in PBS (Phosphate buffered saline), was added in the cell cultures to give a final concentration of 50 μg/ml. At the end of the 48 h incubation period, DMSO was added to the wells and the optical density was measured with an ANTHOS HT II Microelisa reader, using a test wavelength of 550 nm.
(§5) The data represent the means of experiments done in triplicates and were analyzed using a two-tailed Student's t-test.
(§6) Three parameters GI50, TGI and LC50 were estimated using the MTT method. […] TGI is the concentration of the test agent where 100*(T−T0)/(C−TO)=0 and measures the cytostatic effect. Finally LC50 is the concentration of the drug where 100*(T−TO)/TO=−50 and measures the cytotoxic effect of the drug. At the above formulas used for the calculation of the three parameters, T is the optical density of the test well after a 48 h period of exposure to test compound; TO is the optical density at the time zero (when the drug is added) and C is the optical density of the control well (cells incubated for 48 h with no additives).
(§7) The leukemic cell lines CCRF-CEM, MOLT4, HUT78 (T cells), RPMI 8226 (B cell line), HL60 (promyelocytic cell line), K562 (proerythrocytes) and the multi-drug resistant (MDR) cell lines: CCRF-CEM/C2, HL60/MXl and HL601MX2 were used. All cell lines were grown and tested for viability as described above. Free compounds and encapsulated (as described above) were tested according to the method described under cytotoxic activity (see Biological activity, above).

HL60 = test: Cytotoxic activity, MTT method, 48 h; format: cell-based; conditions: for GI50 / TGI: HL60, 48 h, MTT
Experimental: as §1, §2, §3, §4, §5, §6, §7

HUT78 = test: Cytotoxic activity, MTT method, 48 h; format: cell-based; conditions: for GI50 / TGI: HUT78, 48 h, MTT
Experimental: as §1, §2, §3, §4, §5, §6, §7

K562 = test: Cytotoxic activity, MTT method, 48 h; format: cell-based; conditions: for GI50 / TGI: K562, 48 h, MTT
Experimental: as §1, §2, §3, §4, §5, §6, §7

MOLT4 = test: Cytotoxic activity, MTT method, 48 h; format: cell-based; conditions: for GI50 / TGI: MOLT4, 48 h, MTT
Experimental: as §1, §2, §3, §4, §5, §6, §7

RPMI 8226 = test: Cytotoxic activity, MTT method, 48 h; format: cell-based; conditions: for GI50 / TGI: RPMI 8226, 48 h, MTT
Experimental: as §1, §2, §3, §4, §5, §6, §7

CCRF-CEM/C2 = format: cell-based; conditions: for GI50 / TGI: CCRF-CEM/C2 (MDR), 48 h, MTT
Experimental: as §1, §2
as §3, with “1088-1092).” for “1088-1092). Viability of the cells was assessed by trypan blue dye exclusion, at the beginning of the experiment and was always greater than 98%.”
as §4, §5, §6, §7
(§8) The Resistant Factor (RF) is defined as follows: GI50 of the MDR daughter cell line/GI50 of the parental cell line. The (−) represents a parental cell line more resistant than the daughter MDR line.

HL60/MX1 = format: cell-based; conditions: for GI50 / TGI: HL60/MX1 (MDR), 48 h, MTT
Experimental: as §1, §2
as §3, with “1088-1092).” for “1088-1092). Viability of the cells was assessed by trypan blue dye exclusion, at the beginning of the experiment and was always greater than 98%.”
as §4, §5, §6, §7, §8

HL601/MX2 = format: cell-based; conditions: for GI50 / TGI: HL601/MX2 (MDR), 48 h, MTT
Experimental: as §1, §2
as §3, with “1088-1092).” for “1088-1092). Viability of the cells was assessed by trypan blue dye exclusion, at the beginning of the experiment and was always greater than 98%.”
as §4, §5, §6, §7, §8

[1] = test system: leukemic cell lines (MEAN); test: Cytotoxic activity, MTT method, mean over the leukemic cell lines; format: cell-based; conditions: for GI50 / TGI: MEAN of the nine leukemic cell lines
Experimental: as §1, §2, §3, §4, §5, §6, §7

PBML (resting) = format: cell-based, human; conditions: for GI50 / TGI: normal PBML, resting, 48 h, MTT
Experimental: as §1, §2, §4, §5, §6, §7

PBML (stimulating) = format: cell-based, human; conditions: for GI50 / TGI: normal PBML, activated by 5 μg/ml PHA-P, 48 h, MTT
Experimental: as §1, §2, §4, §5, §6, §7

MCF-7 (Breast cancer) = test: Growth percentages at 100 μM; format: cell-based, human
Experimental: as §1, §4
(§9) Three parameters GI50, TGI and LC50 were estimated using the MTT method. […] TGI is the concentration of the test agent where 100*(T−T0)/(C−TO)=0 and measures the cytostatic effect. Finally LC50 is the concentration of the drug where 100*(T−TO)/TO=−50 and measures the cytotoxic effect of the drug. […]

NCI-H460 (Lung cancer) = test: Growth percentages at 100 μM; format: cell-based, human
Experimental: as §1, §4, §9

SF-268 (CNS cancer) = test: Growth percentages at 100 μM; format: cell-based, human
Experimental: as §1, §4, §9

CC(=CCO)CC[C@@H]1[C@@]2(C)CCCC(C)(C)[C@@H]2CC[C@@]1(C)O [Label-13-ene-8, 15 diol, labd-13-ene-8α,15-diol]
CC50 (CCRF-CEM): 200 µM | GI50 (CCRF-CEM): 75.7 µM | TGI (CCRF-CEM): 141.08 µM | CC50 (HL60): 91.8 µM | GI50 (HL60): 47.7 µM | TGI (HL60): 69.74 µM | CC50 (HUT78): 200 µM | GI50 (HUT78): 109 µM | TGI (HUT78): 186 µM | CC50 (K562): 200 µM | GI50 (K562): 87.1 µM | TGI (K562): 159 µM | CC50 (MOLT4): 120 µM | GI50 (MOLT4): 32.3 µM | TGI (MOLT4): 76.22 µM | CC50 (RPMI 8226): 118 µM | GI50 (RPMI 8226): 42.2 µM | TGI (RPMI 8226): 80.08 µM | CC50 (CCRF-CEM/C2): 108 µM | GI50 (CCRF-CEM/C2): 42.3 µM | TGI (CCRF-CEM/C2): 74.96 µM | CC50 (HL60/MX1): 108 µM | GI50 (HL60/MX1): 52.3 µM | TGI (HL60/MX1): 80.1 µM | CC50 (HL601/MX2): 102 µM | GI50 (HL601/MX2): 43.8 µM | TGI (HL601/MX2): 73.14 µM | CC50 [1]: 139 µM | GI50 [1]: 59.1 µM | TGI [1]: 104.48 µM | CC50 (PBML (resting)): > 100 µM | GI50 (PBML (resting)): > 100 µM | TGI (PBML (resting)): >>100 μM | CC50 (PBML (stimulating)): > 100 µM | GI50 (PBML (stimulating)): 66.2 µM | TGI (PBML (stimulating)): >>100 μM | Growth Percentages (MCF-7 (Breast cancer)): −89% | Growth Percentages (NCI-H460 (Lung cancer)): −80% | Growth Percentages (SF-268 (CNS cancer)): −88%

C=C[C@](C)(O)CC[C@@H]1[C@@]2(C)CCCC(C)(C)[C@@H]2CC[C@@]1(C)O [Label-14-ene-8, 13 diol, labd-14-ene-8,13-diol]
CC50 (CCRF-CEM): 85 µM | GI50 (CCRF-CEM): 35 µM | TGI (CCRF-CEM): 60.00 µM | CC50 (HL60): 80 µM | GI50 (HL60): 41.5 µM | TGI (HL60): 60.72 µM | CC50 (HUT78): 78.5 µM | GI50 (HUT78): 33.7 µM | TGI (HUT78): 56.09 µM | CC50 (K562): 79.3 µM | GI50 (K562): 35.6 µM | TGI (K562): 57.45 µM | CC50 (MOLT4): 77.7 µM | GI50 (MOLT4): 31.6 µM | TGI (MOLT4): 54.66 µM | CC50 (RPMI 8226): 70.7 µM | GI50 (RPMI 8226): 14.9 µM | TGI (RPMI 8226): 42.84 µM | CC50 (CCRF-CEM/C2): 75.8 µM | GI50 (CCRF-CEM/C2): 29.1 µM | TGI (CCRF-CEM/C2): 52.41 µM | CC50 (HL60/MX1): 80.9 µM | GI50 (HL60/MX1): 42.9 µM | TGI (HL60/MX1): 61.90 µM | CC50 (HL601/MX2): 76.8 µM | GI50 (HL601/MX2): 31.4 µM | TGI (HL601/MX2): 54.12 µM | CC50 [1]: 78.3 µM | GI50 [1]: 32.9 µM | TGI [1]: 55.58 µM | CC50 (PBML (resting)): 93.1 µM | GI50 (PBML (resting)): 34.6 µM | TGI (PBML (resting)): 63.8 µM | CC50 (PBML (stimulating)): 89 µM | GI50 (PBML (stimulating)): 33.1 µM | TGI (PBML (stimulating)): 61.0 µM

CC(=O)OCC=C(C)CC[C@@H]1[C@@]2(C)CCCC(C)(C)[C@@H]2CC[C@@]1(C)O [Label-13-ene-8, 15-yl acetate, labd-13-ene,8α-ol,15-yl acetate]
CC50 (CCRF-CEM): 187 µM | GI50 (CCRF-CEM): 69.1 µM | TGI (CCRF-CEM): 128.17 µM | CC50 (HL60): 89.3 µM | GI50 (HL60): 44.8 µM | TGI (HL60): 67.04 µM | CC50 (HUT78): 200 µM | GI50 (HUT78): 95.2 µM | TGI (HUT78): 164.00 µM | CC50 (K562): 200 µM | GI50 (K562): 78.2 µM | TGI (K562): 162.00 µM | CC50 (MOLT4): 137 µM | GI50 (MOLT4): 42.8 µM | TGI (MOLT4): 89.95 µM | CC50 (RPMI 8226): 95.5 µM | GI50 (RPMI 8226): 41.3 µM | TGI (RPMI 8226): 68.43 µM | CC50 (CCRF-CEM/C2): 111 µM | GI50 (CCRF-CEM/C2): 46.8 µM | TGI (CCRF-CEM/C2): 78.83 µM | CC50 (HL60/MX1): 106 µM | GI50 (HL60/MX1): 53.9 µM | TGI (HL60/MX1): 80.14 µM | CC50 (HL601/MX2): 101 µM | GI50 (HL601/MX2): 38.8 µM | TGI (HL601/MX2): 69.90 µM | CC50 [1]: 136 µM | GI50 [1]: 56.8 µM | TGI [1]: 100.94 µM | CC50 (PBML (resting)): > 100 µM | GI50 (PBML (resting)): > 100 µM | TGI (PBML (resting)): >>100 μM | CC50 (PBML (stimulating)): > 100 µM | GI50 (PBML (stimulating)): 65.9 µM | TGI (PBML (stimulating)): >>100 μM
